# Literature values in patent US20260345609A1, “METHODS FOR PROMOTING PERSISTENCE OF CELL THERAPY” (Legend Biotech Ireland Limited, priority 2022, published 2026).
# Conditions: Short infusion; cited from earlier work
row,SMILES,Half-life
1,Nc1ccn([C@@H]2O[C@H](CO)[C@@H](O)C2(F)F)c(=O)n1 [Gemcitabine],Short infusion: 32-94 min;

# Same assay, conditions: human, in vivo; cited from earlier work
row,SMILES,Half-life
1,Nc1nc(Cl)nc2c1ncn2[C@H]1C[C@H](O)[C@@H](CO)O1 [Cladribine],10 h
2,CN(C)/N=N/c1[nH]cnc1C(N)=O [Dacarbazine],5 h
3,COc1cccc2c1C(=O)c1c(O)c3c(c(O)c1C2=O)C[C@@](O)(C(=O)CO)C[C@@H]3O[C@H]1C[C@H](N)[C@H](O)[C@H](C)O1 [Doxorubicin],1 to 3 h
4,O=c1[nH]cc(F)c(=O)[nH]1 [Fluorouracil],0.267 h
5,N[C@@H]1CCCC[C@H]1N.[Pt+2] [Oxaliplatin],0.167 to 0.417 h
6,CC(=O)O[C@H]1C(=O)[C@@]2(C)[C@H]([C@H](OC(=O)c3ccccc3)[C@]3(O)C[C@H](OC(=O)[C@H](O)[C@@H](NC(=O)c4ccccc4)c4ccccc4)C(C)=C1C3(C)C)[C@]1(OC(C)=O)CO[C@@H]1C[C@@H]2O [Paclitaxel],5.8 h
7,O=P1(N(CCCl)CCCl)NCCCO1 (centres unmarked) [cyclophosphamide],3 to 12 h
8,Nc1nc(F)nc2c1ncn2[C@@H]1O[C@H](CO)[C@@H](O)[C@@H]1O [fludarabine],20 h
9,CC[C@]1(O)C[C@H]2CN(CCc3c([nH]c4ccccc34)[C@@](C(=O)OC)(c3cc4c(cc3OC)N(C)[C@H]3[C@@](O)(C(=O)OC)[C@H](OC(C)=O)[C@]5(CC)C=CCN6CC[C@]43[C@@H]65)C2)C1 [vinblastine],24.8 h

# Same assay, conditions: long infusion; cited from earlier work
row,SMILES,Half-life
1,Nc1ccn([C@@H]2O[C@H](CO)[C@@H](O)C2(F)F)c(=O)n1 [Gemcitabine],long infusion: 245-638 min
